Measured values taken from the NIST ThermoML archive (doi:10.1021/je200766t).

Conditions: Liquid, Closed cell (Static) method

OCC(O)CO [glycerol]
Conditions	vapor or sublimation pressure [kPa]
351.8 K	0.00583
362.02 K	0.0129
372.06 K	0.0258
382.08 K	0.0544
392.18 K	0.102
402.16 K	0.18
412.24 K	0.315
422.28 K	0.534
432.45 K	0.981
452.64 K	2.747
462.86 K	4.099

OCCCO [propan-1,3-diol]
Conditions	vapor or sublimation pressure [kPa]
313.2 K	0.0111
323.26 K	0.026
333.23 K	0.0574
343.16 K	0.12
351.33 K	0.221
361.61 K	0.43
362.97 K	0.462
371.65 K	0.785
381.7 K	1.395
391.7 K	2.376
391.73 K	2.374
401.64 K	3.883
411.71 K	6.212
421.69 K	9.628
431.74 K	14.62
441.73 K	21.63
451.78 K	31.44
461.85 K	44.81
